Tested on: C. albicans ATCC 90028 biofilm
Assay: Antifungal biofilm susceptibility testing (MBIC), NCCLS M27-A broth microdilution, CellTiter 96 viability readout
Type: cell-based, Candida albicans
Experimental: Materials: Itraconazole EP Micronized (lot number C149307) and PCCA Formula #10342 (4 g of Itraconazole EP Micronized +37.574 g of Poloxamer composition) were provided by PCCA (Houston, Tex., USA) as powders. Itraconazole and PCCA Formula #10342 were prepared on the day of the assay. Fluconazole and amphotericin B were obtained as powders and stored at 4° C. […] Strain: Candida albicans isolate ATCC 90028 was obtained from American Type Culture Collection (Manassas, Va.), and used in the course of this study. Methods: To determine antimicrobial activity of itraconazole and micronized poloxamer composition 202 against biofilms of Candida albicans, an antifungal biofilm susceptibility testing was developed in conditions where a Minimum Biofilm Inhibitory Concentration (MBIC) of itraconazole in a micronized poloxamer composition 202, micronized poloxamer excipient, itraconazole, fluconazole and amphotericin B was measured for the C. albicans biofilm according to the NCCLS M27-A broth microdilution method (NCCLS, 1997). The testing medium used for growing was RPMI 1640 (American Biorganics, Inc., […].) supplemented with L-glutamine (Sigma Aldrich®). […] Cell viability was determined by using CellTiter 96® Non-Radioactive Cell Proliferation Assay (Promega, 2013).

C[C@@H]1[C@H](O)[C@@H](C)/C=C/C=C/C=C/C=C/C=C/C=C/C=C/[C@H](O[C@@H]2O[C@H](C)[C@@H](O)[C@H](N)[C@@H]2O)C[C@@H]2O[C@](O)(C[C@@H](O)C[C@@H](O)[C@H](O)CC[C@@H](O)C[C@@H](O)CC(=O)O[C@H]1C)C[C@H](O)[C@H]2C(=O)O [Amphotericin B, amphotericin B]
MBIC: 0.5 µg/mL
Minimum Biofilm Inhibitory Concentration (48 h at 35° C., lowest concentration giving 50% reduction of fungal growth, combination value expressed as concentration of itraconazole): 0.5 µg/mL

Source: US9763934B2, “Synergistic effect of poloxamer-based composition and itraconazole on fungus and yeast” (Professional Compounding Centers of America (PCCA), priority 2014, dated 2017)
